The target of assay [1] is EGFR del19/T790M/C797S (Homo sapiens, UniProt P00533, C797S/DEL746-750/T790M). Nature of the assay: Biochemical EGFR kinase assay (Lance Ultra TR-FRET), del19/T790M/C797S. On the procedure: (§1) Biochemical EGFR kinase assays were conducted using Lance Ultra time-resolved fluorescence resonance energy transfer (TR-FRET) technology from Perkin-Elmer. Compounds of the invention were initially diluted to 20 mM in 100% DMSO for storage and made into kinase buffer solution to create a compound concentration ranging from 0.003 μM and 10 μM.
Sequence of EGFR del19/T790M/C797S (P00533 with tags, fused parts or gaps DEL746-750/T790M/C797S): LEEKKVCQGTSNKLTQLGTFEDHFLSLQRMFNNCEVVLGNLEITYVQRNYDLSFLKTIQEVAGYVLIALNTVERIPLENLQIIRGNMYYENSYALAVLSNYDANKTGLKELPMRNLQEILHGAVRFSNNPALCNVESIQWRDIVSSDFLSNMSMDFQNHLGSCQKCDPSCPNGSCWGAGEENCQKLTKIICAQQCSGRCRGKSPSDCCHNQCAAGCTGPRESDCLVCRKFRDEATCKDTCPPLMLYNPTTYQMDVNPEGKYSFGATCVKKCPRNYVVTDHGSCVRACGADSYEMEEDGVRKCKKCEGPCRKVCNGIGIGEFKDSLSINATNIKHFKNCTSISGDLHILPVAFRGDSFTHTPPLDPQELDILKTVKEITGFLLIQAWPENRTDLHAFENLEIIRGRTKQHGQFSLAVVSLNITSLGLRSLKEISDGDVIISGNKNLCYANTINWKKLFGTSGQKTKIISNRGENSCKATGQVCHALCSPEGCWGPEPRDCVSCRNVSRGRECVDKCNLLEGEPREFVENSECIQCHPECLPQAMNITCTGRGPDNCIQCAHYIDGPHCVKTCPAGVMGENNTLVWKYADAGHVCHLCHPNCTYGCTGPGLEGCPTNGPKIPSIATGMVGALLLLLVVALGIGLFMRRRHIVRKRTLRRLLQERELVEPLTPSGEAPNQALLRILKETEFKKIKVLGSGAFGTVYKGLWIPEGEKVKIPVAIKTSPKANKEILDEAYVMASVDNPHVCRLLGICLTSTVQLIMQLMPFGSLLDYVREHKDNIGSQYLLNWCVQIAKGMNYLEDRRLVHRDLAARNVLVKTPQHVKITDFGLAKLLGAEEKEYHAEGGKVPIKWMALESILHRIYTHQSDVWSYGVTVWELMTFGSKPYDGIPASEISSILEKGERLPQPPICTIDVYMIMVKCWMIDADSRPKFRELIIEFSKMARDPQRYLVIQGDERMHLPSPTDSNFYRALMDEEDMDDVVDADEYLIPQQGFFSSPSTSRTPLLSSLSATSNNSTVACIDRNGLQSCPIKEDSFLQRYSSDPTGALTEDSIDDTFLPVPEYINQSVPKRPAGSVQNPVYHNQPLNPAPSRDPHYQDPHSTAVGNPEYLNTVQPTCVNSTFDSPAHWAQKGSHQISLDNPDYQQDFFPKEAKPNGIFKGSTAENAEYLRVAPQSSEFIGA
(§2) Each kinase reactions were incubated at room temperature for 1 hour and then stopped by the addition of 4 μL of stop solution (10 mM EDTA). The specific Europium-labeled-anti-phosphopeptide antibody (PerkinElmer, AD0069) diluted in LANCE detection buffer was then added to a final concentration of 2 nM. After 60 minutes incubation at room temperature the LANCE signal was measured on an EnVision Multilabel Reader (Perkin-Elmer). Excitation wavelength was set at 320 nm and emission monitored at 615 nm (donor) and 665 nm (acceptor). The IC50 values were determined using GraphPad prism software (GraphPad Software, Inc., San Diego, CA, USA).

The target in assay [2] is EGFR L858R/T790M/C797S (Homo sapiens, UniProt P00533, C797S/L858R/T790M). The assay is described as follows: Biochemical EGFR kinase assay (Lance Ultra TR-FRET), L858R/T790M/C797S. On the procedure:
as §1, §2

For assay [3], the target named is EGFR del19/C797S (Homo sapiens, UniProt P00533, C797S/DEL746-750). The assay is described as follows: Biochemical EGFR kinase assay (Lance Ultra TR-FRET), del19/C797S. The protocol: as §1, §2
Assay [4] addresses EGFR L858R/C797S (Homo sapiens, UniProt P00533, C797S/L858R). The assay is described as follows: Biochemical EGFR kinase assay (Lance Ultra TR-FRET), L858R/C797S. On the procedure: as §1, §2
For assay [5], the target named is EGFR wildtype (WT) (Homo sapiens, UniProt P00533). Nature of the assay: Biochemical EGFR kinase assay (Lance Ultra TR-FRET), wildtype. The protocol:
as §1, §2

Setting [6] is: Km ATP, read-out: IC50 del19/T790M/C797S (nM) Km ATP.
Setting [7] is: Km ATP, read-out: IC50 L858R/T790M/C797S (nM) Km ATP.
Setting [8] is: Km ATP, read-out: IC50 del19/C797S (nM) Km ATP.
Setting [9] is: Km ATP, read-out: IC50 L858R/C797S (nM) Km ATP.
Where [10] appears, read: Km ATP, read-out: IC50 WT (nM) Km ATP.
Where [11] appears, read: IC50 del19/T790M/C797S (nM) 100 μM ATP, 100 μM ATP.
[12] abbreviates: IC50 L858R/T790M/C797S (nM) 100 μM ATP, 100 μM ATP.
[13] abbreviates: IC50 del19/C797S (nM) 100 μM ATP, 100 μM ATP.
Where [14] appears, read: IC50 L858R/C797S (nM) 100 μM ATP, 100 μM ATP.
The mark [15] stands for this setting: IC50 WT (nM) 100 μM ATP, 100 μM ATP.

Where two headings read alike, the source gives them in different places.

For 14 compounds, IC50 results are on record in patent publication US11945798B2, “Substituted aminopyridine compounds as EGFR inhibitors” (YUHAN CORPORATION, priority 2021, dated 2024).

Sequence of EGFR wildtype (WT) (P00533 25-1210): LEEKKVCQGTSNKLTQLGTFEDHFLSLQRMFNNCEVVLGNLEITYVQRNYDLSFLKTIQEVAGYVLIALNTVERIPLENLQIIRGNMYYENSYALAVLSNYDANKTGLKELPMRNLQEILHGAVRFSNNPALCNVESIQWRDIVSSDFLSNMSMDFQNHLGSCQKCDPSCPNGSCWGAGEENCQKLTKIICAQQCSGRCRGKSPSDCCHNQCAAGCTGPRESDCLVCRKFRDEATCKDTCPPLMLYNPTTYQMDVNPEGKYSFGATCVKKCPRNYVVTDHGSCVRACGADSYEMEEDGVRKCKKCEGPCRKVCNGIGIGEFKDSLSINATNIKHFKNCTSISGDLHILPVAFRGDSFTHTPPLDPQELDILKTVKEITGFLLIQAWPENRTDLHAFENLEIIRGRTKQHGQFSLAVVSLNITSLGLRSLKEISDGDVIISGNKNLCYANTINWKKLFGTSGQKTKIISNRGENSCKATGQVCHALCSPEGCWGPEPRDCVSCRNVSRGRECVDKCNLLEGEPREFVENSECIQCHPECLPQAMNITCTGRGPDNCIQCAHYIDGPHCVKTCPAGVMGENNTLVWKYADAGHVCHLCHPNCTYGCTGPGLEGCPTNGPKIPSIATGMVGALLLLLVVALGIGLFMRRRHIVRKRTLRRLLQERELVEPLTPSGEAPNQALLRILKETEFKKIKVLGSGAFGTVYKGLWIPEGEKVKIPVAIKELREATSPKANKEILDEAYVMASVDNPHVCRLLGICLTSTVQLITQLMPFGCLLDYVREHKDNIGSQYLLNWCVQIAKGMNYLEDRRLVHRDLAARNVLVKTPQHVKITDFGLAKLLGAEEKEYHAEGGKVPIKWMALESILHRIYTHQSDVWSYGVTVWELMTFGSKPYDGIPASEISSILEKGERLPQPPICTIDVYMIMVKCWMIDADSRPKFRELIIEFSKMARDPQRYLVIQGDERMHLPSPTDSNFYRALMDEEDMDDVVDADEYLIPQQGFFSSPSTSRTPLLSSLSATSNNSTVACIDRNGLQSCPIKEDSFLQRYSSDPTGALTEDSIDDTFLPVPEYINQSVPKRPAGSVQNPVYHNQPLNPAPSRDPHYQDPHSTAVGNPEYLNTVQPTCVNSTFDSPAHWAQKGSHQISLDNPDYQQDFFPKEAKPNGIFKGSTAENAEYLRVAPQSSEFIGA
Sequence of EGFR L858R/T790M/C797S (P00533 25-1210 T790M/C797S/L858R): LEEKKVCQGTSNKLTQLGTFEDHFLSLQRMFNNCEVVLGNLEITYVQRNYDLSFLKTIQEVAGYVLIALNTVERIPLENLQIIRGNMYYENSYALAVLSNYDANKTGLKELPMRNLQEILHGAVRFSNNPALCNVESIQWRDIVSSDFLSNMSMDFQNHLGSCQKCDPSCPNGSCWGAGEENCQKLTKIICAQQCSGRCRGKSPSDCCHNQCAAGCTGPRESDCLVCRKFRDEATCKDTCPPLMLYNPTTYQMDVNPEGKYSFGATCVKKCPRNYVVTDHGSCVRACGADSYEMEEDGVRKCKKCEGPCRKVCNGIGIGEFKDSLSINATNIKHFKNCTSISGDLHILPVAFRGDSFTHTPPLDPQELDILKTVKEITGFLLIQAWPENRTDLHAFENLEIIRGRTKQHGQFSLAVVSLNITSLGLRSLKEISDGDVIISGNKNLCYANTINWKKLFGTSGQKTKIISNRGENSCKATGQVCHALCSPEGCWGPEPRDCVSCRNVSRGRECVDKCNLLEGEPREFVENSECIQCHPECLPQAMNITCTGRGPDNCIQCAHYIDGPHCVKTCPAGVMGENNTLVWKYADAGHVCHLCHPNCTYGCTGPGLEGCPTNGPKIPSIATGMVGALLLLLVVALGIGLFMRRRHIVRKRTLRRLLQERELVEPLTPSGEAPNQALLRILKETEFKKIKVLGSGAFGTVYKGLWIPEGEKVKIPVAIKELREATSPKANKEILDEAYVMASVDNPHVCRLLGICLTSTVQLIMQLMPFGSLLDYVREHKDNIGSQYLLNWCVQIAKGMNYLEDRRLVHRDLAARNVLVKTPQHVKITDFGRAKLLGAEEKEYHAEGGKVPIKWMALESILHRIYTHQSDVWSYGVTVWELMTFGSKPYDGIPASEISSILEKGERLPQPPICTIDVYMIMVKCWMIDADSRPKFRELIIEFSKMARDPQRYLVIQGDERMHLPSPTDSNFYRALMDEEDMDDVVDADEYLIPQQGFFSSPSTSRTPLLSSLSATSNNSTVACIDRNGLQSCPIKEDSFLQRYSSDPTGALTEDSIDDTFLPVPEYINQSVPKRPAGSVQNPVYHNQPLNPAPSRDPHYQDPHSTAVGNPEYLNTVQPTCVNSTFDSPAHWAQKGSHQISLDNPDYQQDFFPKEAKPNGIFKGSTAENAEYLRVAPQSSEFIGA
Sequence of EGFR L858R/C797S (P00533 25-1210 C797S/L858R): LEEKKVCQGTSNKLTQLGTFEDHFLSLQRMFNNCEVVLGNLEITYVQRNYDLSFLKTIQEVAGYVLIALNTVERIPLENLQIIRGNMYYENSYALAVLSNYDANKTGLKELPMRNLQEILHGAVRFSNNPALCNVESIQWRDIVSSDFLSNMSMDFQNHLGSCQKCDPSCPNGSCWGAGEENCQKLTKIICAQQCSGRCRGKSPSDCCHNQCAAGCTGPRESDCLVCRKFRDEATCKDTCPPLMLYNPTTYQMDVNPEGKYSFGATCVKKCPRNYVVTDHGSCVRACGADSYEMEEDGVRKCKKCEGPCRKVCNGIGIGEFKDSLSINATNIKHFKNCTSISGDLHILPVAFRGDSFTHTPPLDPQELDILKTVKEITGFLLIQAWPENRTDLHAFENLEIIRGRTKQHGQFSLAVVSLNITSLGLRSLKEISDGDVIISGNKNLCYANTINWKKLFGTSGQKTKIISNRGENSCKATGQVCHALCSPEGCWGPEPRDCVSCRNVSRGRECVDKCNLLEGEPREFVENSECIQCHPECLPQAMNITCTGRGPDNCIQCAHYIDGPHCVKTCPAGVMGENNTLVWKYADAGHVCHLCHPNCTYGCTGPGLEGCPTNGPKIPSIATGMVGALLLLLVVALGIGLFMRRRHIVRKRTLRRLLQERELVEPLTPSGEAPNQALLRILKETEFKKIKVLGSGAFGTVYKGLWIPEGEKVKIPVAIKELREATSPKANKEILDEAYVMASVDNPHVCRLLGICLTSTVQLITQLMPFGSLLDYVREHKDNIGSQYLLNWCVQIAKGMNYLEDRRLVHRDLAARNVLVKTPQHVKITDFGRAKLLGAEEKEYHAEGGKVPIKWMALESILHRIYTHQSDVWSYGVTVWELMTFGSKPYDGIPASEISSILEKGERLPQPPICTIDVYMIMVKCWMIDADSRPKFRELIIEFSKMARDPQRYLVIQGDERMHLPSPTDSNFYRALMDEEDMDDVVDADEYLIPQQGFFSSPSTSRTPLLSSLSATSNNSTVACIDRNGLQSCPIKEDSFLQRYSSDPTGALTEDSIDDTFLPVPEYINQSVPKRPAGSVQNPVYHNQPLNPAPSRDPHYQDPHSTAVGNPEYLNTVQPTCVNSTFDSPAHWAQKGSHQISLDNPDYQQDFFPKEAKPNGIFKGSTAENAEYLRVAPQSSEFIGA

Turning to `CN(C)Cc1ccc(CNc2cc(Nc3ccnc(-c4cnn(C(F)F)c4)n3)ncc2C(=O)C2CC2)cc1` [Example 16, Cyclopropyl(6-((2-(1-(difluoromethyl)-1H-pyrazol-4-yl)pyrimidin-4-yl)amino)-4-((4-((dimethylamino)methyl)benzyl)amino)pyridin-3-yl)methanone], the IC50 in assay [1] (setting [6]) was 2.3 nM; in assay [2] (setting [7]) it was 0.4 nM; in assay [3] (setting [8]), 13.2 nM; in assay [4] (setting [9]) it was 30.8 nM; in assay [5] (setting [10]), 176 nM.
Turning to `O=C(c1cnc(Nc2ccnc(-c3cnn(S(=O)(=O)C4CC4)c3)n2)cc1NC1CCCOC1)C1CC1` (stereo not drawn) [Example 34, Cyclopropyl(6-((2-(1-(cyclopropylsulfonyl)-1H-pyrazol-4-yl)pyrimidin-4-yl)amino)-4-((tetrahydro-2H-pyran-3-yl)amino)pyridin-3-yl)methanone], the IC50 in assay [1] (setting [11]) is 2 nM; in assay [2] (setting [12]), 5.3 nM; in assay [3] (setting [13]), 124 nM; in assay [4] (setting [14]), 398 nM; in assay [5] (setting [15]), above 10000 nM.
`O=C(c1cnc(Nc2ccnc(-c3cnn(S(=O)(=O)C4CC4)c3)n2)cc1N[C@H]1CC[C@@H](O)C1)C1CC1` [Example 25, Cyclopropyl(6-((2-(1-(cyclopropylsulfonyl)-1H-pyrazol-4-yl)pyrimidin-4-yl)amino)-4-(((1S,3R)-3-hydroxycyclopentyl)amino)pyridin-3-yl)methanone]: the IC50 in assay [1] (setting [11]) is 0.9 nM; in assay [2] (setting [12]), 1 nM; in assay [3] (setting [13]), 11.8 nM; in assay [4] (setting [14]) it was 29.4 nM; in assay [5] (setting [15]), above 10000 nM.
With `C[C@]1(O)CC[C@@H](Nc2cc(Nc3ccnc(-c4cnn(S(=O)(=O)C5CC5)c4)n3)ncc2C(=O)NCCF)CC1` [Example 76, 6-((2-(1-(Cyclopropylsulfonyl)-1H-pyrazol-4-yl)pyrimidin-4-yl)amino)-N-(2-fluoroethyl)-4-(((1s,4s)-4-hydroxy-4-methylcyclohexyl)amino)nicotinamide], the IC50 in assay [1] (setting [11]) was 0.6 nM; in assay [1] (setting [6]) it was 0.2 nM; in assay [2] (setting [12]) it was 0.7 nM; in assay [2] (setting [7]), 0.1 nM; in assay [3] (setting [13]), 2.3 nM; in assay [3] (setting [8]), 0.9 nM. In addition, the IC50 is 28.9 nM in assay [4] (setting [14]), 2.7 nM in assay [4] (setting [9]), above 10000 nM in assay [5] (setting [15]) and 12 nM in assay [5] (setting [10]).
In the case of `CC(C)Nc1cc(Nc2ccnc(-c3cnn(S(=O)(=O)C4CC4)c3)n2)ncc1C(=O)NCCF` [Example 74, 6-((2-(1-(Cyclopropylsulfonyl)-1H-pyrazol-4-yl)pyrimidin-4-yl)amino)-N-(2-fluoroethyl)-4-(isopropylamino)nicotinamide], the IC50 in assay [1] (setting [11]) was 4.2 nM; in assay [1] (setting [6]), 6.3 nM; in assay [2] (setting [12]) it was 5.7 nM; in assay [3] (setting [13]) it was 182 nM; in assay [3] (setting [8]), 94.6 nM; in assay [4] (setting [14]), 430 nM. Further, the figures for the IC50 in assay [5] (setting [15]) and in assay [5] (setting [10]) were above 10000 nM and 393 nM, respectively.
On to `O=C(c1cnc(Nc2ccnc(-c3cnn(S(=O)(=O)C4CC4)c3)n2)cc1NC1CCCN(CCF)C1)C1CC1` (stereo not drawn) [Example 39, Cyclopropyl(6-((2-(1-(cyclopropylsulfonyl)-1H-pyrazol-4-yl)pyrimidin-4-yl)amino)-4-((1-(2-fluoroethyl)piperidin-3-yl)amino)pyridin-3-yl)methanone], for which the IC50 in assay [1] (setting [11]) is 3.8 nM; in assay [1] (setting [6]) it was 2.9 nM; in assay [2] (setting [12]), 5.2 nM; in assay [2] (setting [7]), 1.9 nM; in assay [3] (setting [13]), 38.8 nM; in assay [3] (setting [8]), 38.4 nM. The IC50 in assay [4] (setting [14]) is 451 nM; in assay [4] (setting [9]), 19 nM; in assay [5] (setting [15]) it was above 10000 nM; in assay [5] (setting [10]), 470 nM.
For `C[C@]1(O)CC[C@@H](Nc2cc(Nc3ccnc(-c4cnn(S(=O)(=O)C5CC5)c4)n3)ncc2C(=O)CC2CCOCC2)CC1` [Example 40, 1-(6-((2-(1-(Cyclopropylsulfonyl)-1H-pyrazol-4-yl)pyrimidin-4-yl)amino)-4-(((1s,4s)-4-hydroxy-4-methylcyclohexyl)amino)pyridin-3-yl)-2-(tetrahydro-2H-pyran-4-yl)ethan-1-one], the IC50 in assay [1] (setting [11]) turned out to be 0.6 nM; in assay [1] (setting [6]) it was 0.4 nM; in assay [2] (setting [7]), 0.2 nM; in assay [3] (setting [13]), 16.3 nM; in assay [3] (setting [8]), 3.1 nM; in assay [4] (setting [14]), 189 nM. In addition, the IC50 in assay [4] (setting [9]) was 5.1 nM; in assay [5] (setting [15]) it was above 10000 nM; in assay [5] (setting [10]), 64.5 nM.
As to `CC(=O)c1cnc(Nc2ccnc(-c3cnn(S(=O)(=O)C4CC4)c3)n2)cc1NC(C)(C)C(C)O` (stereo not drawn) [Example 46, 1-(6-((2-(1-(Cyclopropylsulfonyl)-1H-pyrazol-4-yl)pyrimidin-4-yl)amino)-4-((3-hydroxy-2-methylbutan-2-yl)amino)pyridin-3-yl)ethan-1-one], the IC50 in assay [1] (setting [6]) came to 0.6 nM; in assay [2] (setting [7]), 7.3 nM; in assay [3] (setting [8]), 290 nM; in assay [4] (setting [9]) it was 471 nM; in assay [5] (setting [10]), 1410 nM.
As for `O=C(c1cnc(Nc2ccnc(-c3cnn(S(=O)(=O)C4CC4)c3)n2)cc1NCCC1(O)CC1)C1CC1` [Example 29, Cyclopropyl(6-((2-(1-(cyclopropylsulfonyl)-1H-pyrazol-4-yl)pyrimidin-4-yl)amino)-4-((2-(1-hydroxycyclopropyl)ethyl)amino)pyridin-3-yl)methanone], the IC50 is 1.8 nM in assay [1] (setting [11]); 10 nM in assay [2] (setting [12]); 3.5 nM in assay [3] (setting [13]); 120 nM in assay [4] (setting [14]); above 10000 nM in assay [5] (setting [15]).
Take `CC(C)Nc1cc(Nc2ccnc(-c3cnn(S(=O)(=O)C4CC4)c3)n2)ncc1C(=O)C1CC1` [Example 1, Cyclopropyl(6-((2-(1-(cyclopropylsulfonyl)-1H-pyrazol-4-yl)pyrimidin-4-yl)amino)-4-(isopropylamino)pyridin-3-yl)methanone]: the IC50 was found to be 3.8 nM in assay [1] (setting [6]); 1.1 nM in assay [2] (setting [7]); 4.5 nM in assay [3] (setting [8]); 84.3 nM in assay [4] (setting [9]); 566 nM in assay [5] (setting [10]).
As to `O=C(c1cnc(Nc2ccnc(-c3cnn(S(=O)(=O)C4CC4)c3)n2)cc1NC1CC[C@@H](O)[C@@H](O)C1)C1CC1` (stereo partly drawn) [Example 36, Cyclopropyl(6-((2-(1-(cyclopropylsulfonyl)-1H-pyrazol-4-yl)pyrimidin-4-yl)amino)-4-(((3S,4R)-3,4-dihydroxycyclohexyl)amino)pyridin-3-yl)methanone], the IC50 in assay [1] (setting [11]) is 0.5 nM; in assay [2] (setting [12]), 0.9 nM; in assay [3] (setting [13]) it was 5.4 nM; in assay [4] (setting [14]) it was 15.5 nM; in assay [5] (setting [15]) it was above 10000 nM.
For `O=C(c1cnc(Nc2ccnc(-c3cnn(S(=O)(=O)C4CC4)c3)n2)cc1NC1CCC(NCCN2CC(F)C2)CC1)C1CC1` (stereo not drawn) [Example 55, Cyclopropyl(6-((2-(1-(cyclopropylsulfonyl)-1H-pyrazol-4-yl)pyrimidin-4-yl)amino)-4-((4-((2-(3-fluoroazetidin-1-yl)ethyl)amino)cyclohexyl)amino)pyridin-3-yl)methanone] the same measures were 1 nM, 1.9 nM, 35.7 nM, 85 nM and above 10000 nM.
For `CN[C@H]1CC[C@@H](Nc2cc(Nc3ccnc(-c4cnn(S(=O)(=O)C5CC5)c4)n3)ncc2C(=O)C2CC2)CC1` [Example 32, Cyclopropyl-(6-((2-(1-(cyclopropylsulfonyl)-1H-pyrazol-4-yl)pyrimidin-4-yl)amino)-4-(((1s,4s)-4-(methylamino)cyclohexyl)amino)pyridin-3-yl)methanone] the same measures were 1.2 nM, 2 nM, 51.1 nM, 54.7 nM and above 10000 nM.
For `O=C(c1cnc(Nc2ccnc(-c3cnn(S(=O)(=O)C4CC4)c3)n2)cc1NC1CCC(NCCN2CCCCC2)CC1)C1CC1` (stereo not drawn) [Example 56, Cyclopropyl(6-((2-(1-(cyclopropylsulfonyl)-1H-pyrazol-4-yl)pyrimidin-4-yl)amino)-4-((4-((2-(piperidin-1-yl)ethyl)amino)cyclohexyl)amino)pyridin-3-yl)methanone] the same measures were 1 nM, 1.2 nM, 7.6 nM, 12.2 nM and 6300 nM.
